# Results reported in a melting point compilation (Tetko et al.; mined from patent text by program, amines drawn as free bases though some values may be those of a salt).
row,melting point [°C],SMILES
1,176 to 178,NC1CCCN(C(=O)c2ccc(NC(=O)c3ccccc3Cl)cc2)c2ccccc21 (stereo not drawn)
2,108 to 109,C=CS(=O)CCNC(=O)CCS(=O)(=O)CCCl (stereo not drawn)
3,130 to 132,CC(C)(C)OC(=O)N[C@@H]1C(=O)N[C@H]1C1CCCCC1 (relative stereo)
4,198 to 200,CC(C)(CNc1ccc(C(=O)CCC(=O)O)cc1)[N+](=O)[O-]
5,> 260,O=C(NCCc1c2n(c3ccc(O)nc13)CCCc1ccccc1-2)c1ccco1
6,214 to 217,CC1(C)c2cc(NS(C)(=O)=O)ccc2CC2C1CCCN2CC1CCCCC1 (stereo not drawn)
7,208 to 210,COCc1nnc(N2N=C(c3ccc([N+](=O)[O-])c(Cl)c3)c3cc4c(cc3C[C@H]2C)OCO4)s1
8,248 to 249,CC(C)(C)C(=O)c1c[nH]c2ncc(-c3cccc(C#N)c3)nc12
9,177,Cc1cc(-c2cc(C(F)(F)F)n3ncc(-c4cccnc4)c3n2)ccc1C(F)(F)F
10,135 to 136,Nc1noc(-c2ccc(CN3CCCCCC3)s2)n1
11,187 to 189,COC(=O)c1ccc(C(=O)CC(=O)/C=C/c2ccc(O)c(OC)c2)cc1
12,141,CC(C)c1ccc(C(=O)CCl)cc1S(N)(=O)=O
13,83 to 85,CCOC(=O)CCCN(C(=O)CC)C(c1ccccc1)c1ccccc1
14,75.5 to 76.2,COc1cc(C=CC(=O)c2ccc(C3CCCCC3)cc2)cc(OC)c1
15,161 to 162,N=C(Nc1ccc(Cl)c(Cl)c1)Nc1ncccc1OCc1ccccc1
16,109 to 112,O=S(=O)(c1ccccc1)c1nccc2c1CCCC2
17,85 to 87,Cc1nn(C)c(F)c1C(=O)F
18,170 to 172,CCOc1cccc(C(=O)Nc2ccc(C(=O)N3CCCc4ccccc43)cc2)c1
19,75 to 78,BrCc1cc2ccc3ccccc3c2s1
20,115 to 116,Cn1nc(C(F)(F)F)c(CS(=O)(=O)C2=NOC(C)(C)C2)c1Cl
21,190 to 192,CC(CS)C(=O)N(C)c1cncc(C(=O)O)c1 (stereo not drawn)
22,225 to 228,Oc1cccc(-c2nc3cccc(CBr)c3o2)c1
23,115,COC(=O)CCCc1cc2cc(C(F)(F)F)ccc2n1S(=O)(=O)c1cccc(C(C)C)c1

row,melting point [°C],SMILES
1,168 to 170,CSC(Nc1ccc2c(c1)OCO2)=C(C#N)S(C)(=O)=O
2,84 to 87,Cc1cnc(CCCC#N)c(N)c1
3,132 to 134,COc1ccc(-c2cc(Cl)c3c(Cl)c(O)ccc3c2)cc1
4,131 to 135,COc1cc(C(=O)O)cc(C(F)(F)F)c1
5,322 to 323,Cn1cc2c(=O)n(-c3ccc(Cl)cc3)nc-2c2ccccc21
6,156 to 157,CC(C)C(C)C=CC(C)C1CCC2C3=CC=C4CC(O)C=CC4(C)C3CCC21C (stereo not drawn)
7,140,Cc1c2c(nc3ccccc13)CCN(C(=N)N)CC2
8,168 to 170,CC(C)(C)C(NC(=O)C(=O)Nc1cccnc1)NC(=O)c1ccc(Cl)cc1 (stereo not drawn)
9,173 to 174,COCC(=O)Nc1cc(C#N)cc(NC(=O)COC)c1Cl
10,79 to 81,CCOC(=O)c1cnc2sc3c(n12)CCCCCC3
11,155 to 158,O=C(O)c1ccc(NC(=O)C(CC2CCCC2)c2ccc(-c3cccc4ccccc34)cc2)nc1 (stereo not drawn)
12,136 to 138,CS(=O)(=O)N(CCI)N(S(C)(=O)=O)S(C)(=O)=O
13,56 to 58,Cn1nc(C(F)(F)F)cc1Oc1cccc(Cl)n1
14,76 to 78,CCCCCCCN(CC(c1ccccc1)c1ccccc1)C(=O)Nc1ccc(F)cc1F
15,63 to 65,O=C(c1ccccc1)c1cc(Cl)ccc1N=C=S
16,159 to 161,COc1cc(OCC2CCCO2)ccc1/C=C/C(=O)CC(=O)/C=C/c1ccc2cc[nH]c2c1 (stereo not drawn)
17,78 to 80,CCNC(=O)c1c([Si](C)(C)C)ccc(C(C)=O)c1Cl
18,101 to 103,COc1ccc2c(-c3ccccc3F)noc2c1
19,200 to 202,CCOc1sc(C(N)=O)c2c1-c1c(cnn1C)CC2
20,166 to 167,CCCN1C(=O)c2cscc2Nc2ccccc21
21,46,CCCCCCCCCCCCCCC(=S)NCCCN1CCOCC1
22,66 to 72,CC(C)C(NC(=O)Cn1cc(Cc2ccc(F)cc2)cc(NC(=O)OCc2ccccc2)c1=O)C(=O)C(F)(F)F (stereo not drawn)
23,176 to 177,CN1CCN(C(=S)Nc2ccc3nc(C(C)(C)C)sc3c2)CC1

row,melting point [°C],SMILES
1,115 to 117,Cc1ccc(S(=O)(=O)OCC2Cc3cc(Cl)cc(-c4ccsc4)c3O2)cc1 (stereo not drawn)
2,77 to 79.5,Cn1nnnc1SCCSc1ccccn1
3,168 to 169,Cc1oc(-c2ccc3ccccc3c2)nc1CCc1ccc(CCCC2OC(=O)NC2=O)cc1 (stereo not drawn)
4,164 to 166,Cc1nc(-n2cnn(Cc3ccc(F)cc3)c2=O)sc1CO
5,164 to 169,CN1CCN(c2cc(Cl)cc3c2c(=O)n(Cc2ccccc2[N+](=O)[O-])c(=O)n3Cc2ccccc2)CC1
6,131 to 136,COc1cc(C(=O)NS(=O)(=O)c2ccccc2Cl)ccc1Cc1cn(C)c2ccc(CC(C)NC(=O)N(C)C)cc12 (stereo not drawn)
7,147 to 148,Cc1cc2ccc(Cl)c(C)c2nc1-n1cncn1
8,137 to 138,CCCCCCc1nc2cnc3ccccc3c2n1CCCCNS(=O)(=O)c1ccccc1
9,90 to 92,COc1ccc(-n2cc(C(F)(F)F)nc2-c2ccc(OC)nc2)cc1
10,79 to 81,C[C@@H](O)[C@H]1C(=O)N(CC(=O)OC(C)(C)C)[C@@H]1C(=O)OC(C)(C)C
11,> 300,Cn1ncc2[nH]c3ccc(Cc4cccc(C(N)=O)c4)cc3c(=O)c21
12,158 to 160,CC(=O)C1CCC2=C(C1)C1OC2c2cc3ccccc3cc21 (stereo not drawn)
13,212 to 215,CCc1noc(C)c1-c1[nH]c2ccccc2c1C(=O)C(=O)N(C)C
14,95 to 98,CCCN(CCC)c1ccc(S(=O)(=O)NCCCCC(=O)O)cc1
15,146 to 148,CC1=C(C(=O)O)[C@H](c2cccc([N+](=O)[O-])c2)C(C(=O)OCOC(=O)C(C)(C)C)=C(C)N1
16,176,C#Cc1c(C#N)nn(-c2c(Cl)cc(OC(F)(F)F)cc2Cl)c1N
17,143 to 144,O=C(CCl)NCc1ccc2ccn(C3CCN(CCc4ccc(F)cc4)CC3)c2c1
18,148 to 150,COC(=O)C1=C(C)Nc2ccccc2SC1c1ccc(C)cc1 (stereo not drawn)
19,312 to 314,CCC(CC)NC(=O)CCCOc1ccc2nc3[nH]c(=O)[nH]c3cc2c1
20,284,O=C(O)c1ccc(C(=O)O)c(-c2nc3ccccc3o2)c1
21,110 to 115,COc1ccc(C(=NO)c2sccc2Br)cc1
22,74 to 81,CCOC(=O)c1ccc(C(=O)c2ccc(OC)cc2)cc1

row,SMILES,melting point [°C]
1,NC(=O)OCc1cc2c(Oc3ccc(Cl)cc3)cncc2s1,113 to 115
2,COC(=O)C12Cc3cc(Cl)ccc3C1=NN(C(=O)N(C)c1ccc(OC(F)(F)F)cc1)CO2 (stereo not drawn),130 to 131
3,COc1ccc(C2C3=C(COC3=O)Nc3ccc4nc(S)[nH]c4c32)cc1O (stereo not drawn),334 to 337
4,CCCCCN1CC[C@@H](c2ccc(Br)cc2)[C@H](CO)C1 (racemic),128 to 130
5,CN(SC(C)(C)C(=O)c1ccccc1)C(=O)ON=C1SC(C)(C)C(=O)N1C,98 to 100
